Source: publication PMC5315062 (Oncology and Therapy, 2016)
Entries after “also recorded” stand apart in the source; their conditions may differ.

What was measured:
[1] = Stability of ponatinib in rat bio-samples under different storage conditions; assay type: in vitro ADME; conditions: rat plasma, urine, feces; all RE (%) and RSD (%) below 15%
[2] = Toxicity and mortality after repeated intragastric administration in rats; assay type: in vivo
[3] = healthy subjects, meal within 30 min prior to single oral administration; cited from earlier work
[4] = tested on: BCR–ABL1; conditions: cited from earlier work
[5] = in vitro; large decrease in solubility with increasing pH; cited from earlier work
[6] = Tissue distribution in rats after i.g. 15.0 mg/kg; assay type: in vivo, Sprague–Dawley rats; conditions: for exposure in lung and thyroid: rat, 3, 9, 24 h
[7] = Single- versus multi-dose; conditions: rat
[8] = Single-dose pharmacokinetics of ponatinib in rats; assay type: in vivo, Sprague–Dawley rats; conditions: rat; for half-life: T 1/2, rat; for Tmax: T max
[9] = both, Sprague-Dawley, in vivo, po, 3.75 mg/kg
[10] = i.g. 3.75 mg/kg once a day for 7 days (multi-dose)
[11] = both, Sprague-Dawley, plasma, iv, 3 mg/kg
[12] = both, Sprague-Dawley, plasma, po, 7.5 mg/kg
[13] = both, Sprague-Dawley, plasma, po, 7.5 mg/kg, i.g. 7.5 mg/kg
[14] = both, Sprague-Dawley, plasma, po, 15 mg/kg
[15] = both, Sprague-Dawley, plasma, po, 15 mg/kg, i.g. 15.0 mg/kg
[16] = both, Sprague-Dawley, plasma, po, 30 mg/kg
[17] = both, Sprague-Dawley, plasma, po, 30 mg/kg, i.g. 30.0 mg/kg

Compound: Cc1ccc(C(=O)Nc2ccc(CN3CCN(C)CC3)c(C(F)(F)F)c2)cc1C#Cc1cnc2cccnn12 [ponatinib, Ponatinib]
- stability under various storage conditions [1]: stable
- toxicity ([2]; 3.75 mg/kg consecutive administration for 7 days): Toxicity was displayed to some extent
- mortality ([2]; repeated intragastric administration over 6 mg/kg): increased; also recorded: high mortality
- effect of a high- or low-fat meal on single-dose pharmacokinetics [3]: no effect
- concentration at which BCR–ABL1 is inhibited [4]: above 40 nmol/L
- aqueous solubility [5]: pH-dependent
- distribution into tissues of the body ([6]; rat): distributed widely; also recorded: widely distributed
- level in stomach, intestine and liver ([6]; rat): fairly low
- exposure in lung and thyroid [6]: highly exposed; also recorded: highest levels
- exposure in lung and thyroid ([6]; listed as Ponatinib): highest exposure
- Cmax [7, 9]: 129 ± 37.6 ng/mL
- Cmax at 7 days [7, 9]: 189 ± 55.7 ng/mL
- Tmax [7, 9]: 10 ± 2.19 h
- Tmax at 7 days [7, 9]: 6.67 ± 3.01 h
- half-life [7, 9]: 11.3 ± 1.46 h
- half-life at 7 days [7, 9]: 10.9 ± 1.56 h
- CL [7, 10]: 11.7 ± 1.83 mL/min/kg
- V [7, 10]: 10.85 ± 1.49 L/kg
- CL ([7]; i.g. 3.75 mg/kg, single dose): 29.8 ± 10.2 mL/min/kg
- V ([7]; i.g. 3.75 mg/kg, single dose): 28.91 ± 9.47 L/kg
- AUC(0-inf) [8, 11]: 2180 ± 462 ng·h/mL
- MRT [8, 11]: 9.77 ± 0.66 h
- clearance [8, 11]: 23.8 mL/min/kg
- concentration at 5 min [8, 11]: 281 ± 129 ng/mL
- half-life ([8]; both, Sprague-Dawley, plasma, iv, 3 mg/kg, i.v. 3.0 mg/kg): 6.17 ± 0.95 h
- AUC(0-inf) [8, 12]: 1910 ± 353 ng·h/mL
- Cmax [8, 12]: 104 ± 23.4 ng/mL
- MRT [8, 12]: 16.4 ± 1.25 h
- half-life [8, 13]: 10.9 ± 1.06 h
- Tmax [8, 13]: 8.4 ± 2.19 h
- AUC(0-inf) [8, 14]: 5030 ± 1010 ng·h/mL
- Cmax [8, 14]: 285 ± 69 ng/mL
- MRT [8, 14]: 16.7 ± 2.74 h
- half-life [8, 15]: 9.7 ± 1.43 h
- Tmax [8, 15]: 8.33 ± 0.82 h
- AUC(0-inf) [8, 16]: 11600 ± 2890 ng·h/mL
- Cmax [8, 16]: 638 ± 107 ng/mL
- MRT [8, 16]: 16.5 ± 2.36 h
- half-life [8, 17]: 9.66 ± 0.81 h
- Tmax [8, 17]: 7.67 ± 0.82 h
- CL ([8]; i.g. 7.5 mg/kg): 67 ± 11.3 mL/min/kg
- V ([8]; i.g. 7.5 mg/kg): 63.55 ± 14.02 L/kg
- CL ([8]; i.g. 15.0 mg/kg): 51.2 ± 9.33 mL/min/kg
- V ([8]; i.g. 15.0 mg/kg): 42.85 ± 5.01 L/kg
- CL ([8]; i.g. 30.0 mg/kg): 45.3 ± 12.7 mL/min/kg
- V ([8]; i.g. 30.0 mg/kg): 37.78 ± 9.26 L/kg
- exposure in plasma in relation to dose ([8]; i.g. 7.5, 15.0, 30.0 mg/kg): dose-dependent exposure
- V ([8]; i.v. 3.0 mg/kg): 12.93 ± 4.37 L/kg
